“Also recorded” adds a separate entry of the source.
What was measured:
LA SCCHN = details: phase 2 clinical trial, combination with CRT compared to CRT alone; cited from earlier work
[1] = Humidity stability test with DVS analyzer; format: physicochemical; details: DVS 0% RH-95% RH
Procedure: (§1) Dynamic Vapor Sorption (DVS) was measured via an SMS (Surface Measurement Systems Ltd.) intrinsic DVS instrument. The instrument control software is DVS-Intrinsic control software. Typical Parameters for DVS test are as follows: • Temperature: 25° C. • Gas and flow rate: N2, 200 mL/min • dm/dt: 0.002%/min • RH range: 0% RH-95% RH
DVS analyzer was applied to evaluate the humidity stability of prior art solids, Form CSI and Form CSII. The appearance of Form CSI before and after humidity stability test is shown in FIG. 12, and an XRPD pattern of Form CSI before and after test is shown in FIG. 13. The appearance of Form CSII before and after humidity stability test is shown in FIG. 14, and an XRPD pattern of Form CSII before and after test is shown in FIG. 15.

[2] = Storage stability of drug substance with open package (HPLC purity, XRPD form, appearance); format: physicochemical
Procedure: An appropriate amount of Form CSI was packaged with corresponding condition, and then stored with open package under 25° C./60% RH, 40° C./75% RH and 60° C./75% RH conditions for a period. Appropriate amounts of prior art solids were packaged with corresponding condition, and then stored with open package under 25° C./60% RH and 60° C./75% RH conditions for a period. Chemical purity and crystalline form were checked by HPLC and XRPD, respectively. The appearance comparison of prior art solid A and Solid B before and after storage are shown in FIG. 19 and FIG. 20, respectively.
Open: Put the sample into a glass vial, cover the vial with aluminum foil, and punch 5-10 holes in the foil.
An appropriate amount of Form CSII and prior art solids were packaged with corresponding conditions, and then stored with open package under 25° C./60% RH and 60° C./75% RH for a period. Chemical purity and crystalline form were checked by HPLC and XRPD, respectively. The appearance comparison of prior art solid A and Solid B before and after storage are shown in FIG. 19 and FIG. 20, respectively.

[3] = Stability upon mechanical force (ball milling, tableting; XRPD); format: physicochemical; details: for Crystalline form before and after tableting (XRPD): manual tablet press, 20 kN, 6 mm round tooling; for Crystal form before and after ball milling (XRPD): milled 5 min at 500 rpm in a ball mill
Procedure: Form CSI was milled for 5 min at a vibration speed of 500 rpm in a ball mill. The sample before and after ball milling were checked by XRPD. […] An appropriate amount of Form CSI was compressed into a tablet using a manual tablet press under a pressure of 20 kN with a ϕ6 mm round tooling. Crystalline form before and after tableting were checked by XRPD. […] Form CSII was milled for 5 min at a vibration speed of 500 rpm in a ball mill. The sample before and after ball milling were checked by XRPD. […] An appropriate amount of Form CSII was compressed into a tablet using a manual tablet press under a pressure of 20 kN with a @6 mm round tooling. Crystalline form before and after tableting were checked by XRPD.

Hygroscopicity by DVS = format: physicochemical; details: from 0% RH to 80% RH
Procedure: as §1, with “RH-95% RH DVS analyzer was applied to evaluate the hygroscopicity of Form CSI with about 10 mg of sample. […] DVS analyzer was applied to evaluate the hygroscopicity of Form CSII with about 10 mg of sample.” for “RH-95% RH”

[4] = Stability of crystalline form in the formulation process (XRPD); format: physicochemical; details: formulation of Table 9, process of Table 10
Procedure: An XRPD of blank prescription (excipients) and the samples before and after the formulation were tested, and result is shown in FIG. 24. […] [table] [table] An XRPD of Blank prescription (excipients) and Form CSII before and after the formulation were tested, and result is shown in FIG. 28.

[5] = Initial (baseline of storage stability)

Row | SMILES | Appearance after test [1] | Crystal change before and after humidity stability test (XRPD) [1] | Appearance ([2]; Initial) | Form ([2]; Initial) | Purity [2, 5] [%] | Crystalline form before and after tableting (XRPD) [3] | Crystal form before and after ball milling (XRPD) [3] | Weight gain (Hygroscopicity by DVS) [%] | Crystalline form before and after the formulation process (XRPD) [4] | Appearance ([2]; 25° C./60% RH, Open, 1 month) | Form ([2]; 25° C./60% RH, Open, 1 month) | Purity ([2]; 25° C./60% RH, Open, 1 month) [%] | Appearance ([2]; 60° C./75% RH, Open, 1 week) | Form ([2]; 60° C./75% RH, Open, 1 week) | other results
1 | CN[C@@H](C)C(=O)N[C@H]1CN(C(=O)CC(C)C)CC[C@H]2CC[C@@H](C(=O)NC(c3ccccc3)c3ccccc3)N2C1=O [Xevinapant, (5S,8S,10aR)—N-benzhydryl-5-((S)-2-(methylamino)propanamido)-3-(3-methylbutanoyl)-6-oxodecahydropyrrolo[l,2-a][l,5]diazocine-8-carboxamide] |  |  |  |  |  |  |  |  |  |  |  |  |  |  | Efficacy in treating patients with LA SCCHN (LA SCCHN): demonstrated efficacy
2 | CN[C@@H](C)C(=O)N[C@H]1CN(C(=O)CC(C)C)CC[C@H]2CC[C@@H](C(=O)NC(c3ccccc3)c3ccccc3)N2C1=O [Form CSI] | Powder | no crystal change | Powder | Form CSI | 99.50 | keeps stable after tableting | No crystal change | 0.46 | keeps stable before and after the formulation process |  |  |  |  |  | Time stable ([2]; 25° C./60% RH open condition): at least 6 months; Appearance ([2]; 25° C./60% RH, Open, 6 months): Powder; Form ([2]; 25° C./60% RH, Open, 6 months): Form CSI; Purity ([2]; 25° C./60% RH, Open, 6 months): 99.45%; Time stable ([2]; 40° C./75% RH open condition): at least 6 months; Appearance ([2]; 40° C./75% RH, Open, 6 months): Powder; Form ([2]; 40° C./75% RH, Open, 6 months): Form CSI; Purity ([2]; 40° C./75% RH, Open, 6 months): 99.45%; Time stable ([2]; 60° C./75% RH open condition): at least 3 months; Appearance ([2]; 60° C./75% RH, Open, 3 months): Powder; Form ([2]; 60° C./75% RH, Open, 3 months): Form CSI
3 | CN[C@@H](C)C(=O)N[C@H]1CN(C(=O)CC(C)C)CC[C@H]2CC[C@@H](C(=O)NC(c3ccccc3)c3ccccc3)N2C1=O [Form CSII] | Powder | no crystal change | Powder | Form CSII |  | kept stable after tableting | keeps stable after ball milling | 1.16 | keeps stable before and after the formulation process |  |  |  |  |  | Physical stability ([2]; 60° C./75% RH open condition): keeps physically stable for at least four weeks; Appearance ([2]; 60° C./75% RH, Open, 4 weeks): Powder; Form ([2]; 60° C./75% RH, Open, 4 weeks): No crystal change; also recorded: Form CSII
4 | CN[C@@H](C)C(=O)N[C@H]1CN(C(=O)CC(C)C)CC[C@H]2CC[C@@H](C(=O)NC(c3ccccc3)c3ccccc3)N2C1=O.Cl [Prior art Solid A, reference compound] | Transparent solid |  | Powder | Amorphous | 98.77 |  |  |  |  | Powder | Amorphous | 98.65 | Gel | Gel | 
5 | CN[C@@H](C)C(=O)N[C@H]1CN(C(=O)CC(C)C)CC[C@H]2CC[C@@H](C(=O)NC(c3ccccc3)c3ccccc3)N2C1=O.O=C(O)C(F)(F)F [Prior art Solid B, reference compound] | Transparent solid |  | Powder | Amorphous | 98.87 |  |  |  |  | Powder | Amorphous | 98.73 | Gel | Gel | 

Source: patent US12162885B2, “Crystal form of Xevinapant for treating LA SCCHN” (CRYSTAL PHARMACEUTICAL (SUZHOU) CO., LTD., priority 2022, dated 2024)
